Here are results for 50 compounds from US8507538B2, “Selective heterocyclic sphingosine 1 phosphate receptor modulators” (Receptos, Inc., priority 2009, dated 2013).

Bounds are passed on as bounds.

This experiment deals with S1P1/EDG1 (Homo sapiens, UniProt P21453). Briefly: S1P1 CRE-bla CHOK1 reporter assay (inhibition of Forskolin induced cAMP). The class given is cell-based. Conditions: agonist activity range, Table 2; read-out: S1P1 ACTIVITY
In outline:
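Stable CRE-bla CHO-K1 clone expressing human S1P1, serum-starved (0.5% stripped serum) 18 h, then treated with compound (10-point curve) plus 2 μM forskolin for 4 h at 37 °C. β-lactamase FRET ratio (458/522 nm) read after 2 h substrate loading; EC50 for inhibition of forskolin-induced cAMP by non-linear regression.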

Sequence of S1P1/EDG1 (P21453 whole entry): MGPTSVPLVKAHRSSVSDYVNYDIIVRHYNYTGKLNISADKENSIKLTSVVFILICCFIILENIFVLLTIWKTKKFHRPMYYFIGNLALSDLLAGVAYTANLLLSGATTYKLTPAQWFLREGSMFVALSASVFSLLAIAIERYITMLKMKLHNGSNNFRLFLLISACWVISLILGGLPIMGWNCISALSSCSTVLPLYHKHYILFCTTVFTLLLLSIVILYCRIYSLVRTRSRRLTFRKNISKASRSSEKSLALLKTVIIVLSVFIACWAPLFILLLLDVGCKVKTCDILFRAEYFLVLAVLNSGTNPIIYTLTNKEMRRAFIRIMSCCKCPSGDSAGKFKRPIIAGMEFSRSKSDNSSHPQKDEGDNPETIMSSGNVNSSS

Regarding `CC(C)Oc1ccc(-c2ncc(-c3cccc4c3CC[C@@H]4NS(=O)(=O)CCN3CCC3)s2)cc1C#N` [Compound 127], the EC50 lay in the range of 0.5 to 5 nM. The value for `CC(C)Oc1ccc(-c2ncc(-c3cccc4c3CCC4NCCS(C)(=O)=O)s2)cc1C#N` (stereo in doubt) [Compound 220, (R)-2-isopropoxy-5-(5-(1-((2-(methylsulfonyl)ethyl)amino)-2,3-dihydro-1H-inden-4-yl)thiazol-2-yl)benzonitrile] was 0.05 to 0.5 nM; that for `CC(C)Oc1ccc(-c2ncc(-c3cccc4c3CCC4NCC(=O)O)s2)cc1C#N` (stereo in doubt) [Compound 96, (R)-2-((4-(2-(3-cyano-4-isopropoxyphenyl)thiazol-5-yl)-2,3-dihydro-1H-inden-1-yl)amino)acetic acid] was 0.05 to 0.5 nM; that for `COC(=O)N[C@H]1CCc2c(-c3cnc(-c4ccc(OC(C)C)c(C#N)c4)s3)cccc21` [Compound 89] was 0.5 to 5 nM. As to `CC(C)Oc1ccc(-c2ncc(-c3cccc4c3CC[C@@H]4NC(=O)N3CCCC3)s2)cc1C#N` [Compound 173, (S)-N-(4-(2-(3-cyano-4-isopropoxyphenyl)thiazol-5-yl)-2,3-dihydro-1H-inden-1-yl)pyrrolidine-1-carboxamide], the EC50 was in the range of 0.5 to 5 nM. Consider `CC(C)Oc1ccc(-c2ncc(-c3cccc4c3CC[C@@H]4O)s2)cc1C#N` [Compound 70, (S)-5-(5-(1-hydroxy-2,3-dihydro-1H-inden-4-yl)thiazol-2-yl)-2-isopropoxybenzonitrile], for which the EC50 was in the range of 0.5 to 5 nM.

On to `CC(C)Oc1ccc(-c2ncc(-c3cccc4c3CC[C@@H]4NS(=O)(=O)CCN3CCC[C@H](O)C3)s2)cc1C#N` [Compound 144], for which the EC50 fell in the range of 0.5 to 5 nM. With `CC(C)Oc1ccc(-c2cnc(-c3cccc4c3CCC4O)s2)cc1C#N` (centres unmarked) [Compound 222, 5-(2-(1-hydroxy-2,3-dihydro-1H-inden-4-yl)thiazol-5-yl)-2-isopropoxy-benzonitrile], the EC50 was more than 5 nM. As to `CC(C)Oc1ccc(-c2ncc(-c3cccc4c3CC[C@@H]4NC(=O)CN3CCCC3)s2)cc1C#N` [Compound 85], the EC50 is more than 5 nM. In the case of `CC(C)Oc1ccc(-c2nnc(-c3cccc4c3CC[C@@H]4NS(=O)(=O)CCN3CCC(O)C3)s2)cc1C#N` (stereo in doubt) [Compound 37, N-((S)-4-(5-(3-cyano-4-isopropoxyphenyl)-1,3,4-thiadiazol-2-yl)-2,3-dihydro-1H-inden-1-yl)-2-((R)-3-hydroxypyrrolidin-1-yl)ethanesulfonamide], the EC50 is 0.5 to 5 nM. The value for `CC(C)Oc1ccc(-c2ncc(-c3cccc4c3CC[C@@H]4NS(=O)(=O)CCN3CCC(O)CC3)s2)cc1C#N` [Compound 146] was 0.5 to 5 nM; that for `CC(C)Oc1ccc(-c2nnc(-c3cccc4c3CCC4NCCS(C)(=O)=O)s2)cc1C#N` (stereo in doubt) [Compound 32, (R)-2-isopropoxy-5-(5-(1-((2-(methylsulfonyl)ethyl)amino)-2,3-dihydro-1H-inden-4-yl)-1,3,4-thiadiazol-2-yl)benzonitrile] was less than 0.05 nM. For `CC(C)Oc1ccc(-c2ncc(-c3cccc4c3CC[C@@H]4NCC(=O)O)s2)cc1C#N` [Compound 97, (S)-2-((4-(2-(3-cyano-4-isopropoxyphenyl)thiazol-5-yl)-2,3-dihydro-1H-inden-1-yl)amino)acetic acid] the value was 0.05 to 0.5 nM; for `CC(C)Oc1ccc(-c2nnc(-c3cccc4c3CC[C@H]4NC(=O)N3CCCC3)s2)cc1C#N` [Compound 52], 0.05 to 0.5 nM. Consider `CC(C)Oc1ccc(-c2ncc(-c3cccc4c3CC[C@@H]4NS(=O)(=O)CCN3CCCC3)s2)cc1C#N` [Compound 129], for which the EC50 was more than 5 nM. Regarding `CC(C)Oc1ccc(-c2ncc(-c3cccc4c3CC[C@@H]4NS(=O)(=O)CCN3CC(O)C3)s2)cc1C#N` [Compound 150], the EC50 is 0.5 to 5 nM. Take `CC(C)Oc1ccc(-c2ncc(-c3cccc4c3CC[C@@H]4NCC(=O)N(C)C)s2)cc1C#N` [Compound 98]: the EC50 was in the range of 0.5 to 5 nM.

Turning to `CC(C)Oc1ccc(-c2ncc(-c3cccc4c3CCC4N3CC[C@H](N)C3)s2)cc1C#N` (some centres unmarked) [Compound 211], the EC50 fell in the range of 0.5 to 5 nM. As for `CCS(=O)(=O)N[C@H]1CCc2c(-c3cnc(-c4ccc(OC(C)C)c(C#N)c4)s3)cccc21` [Compound 113], the EC50 lay in the range of 0.05 to 0.5 nM.

`CC(C)Oc1ccc(-c2ncc(-c3cccc4c3CCC4N3CCNCC3)s2)cc1C#N` (centres unmarked) [Compound 215]: the EC50 was 0.5 to 5 nM. For `COCCS(=O)(=O)N[C@H]1CCc2c(-c3nnc(-c4ccc(OC(C)C)c(C#N)c4)s3)cccc21` [Compound 35], the EC50 fell in the range of 0.05 to 0.5 nM. On to `CC(C)Oc1ccc(-c2ncc(-c3cccc4c3CC[C@@H]4NS(=O)(=O)CCN3CCOCC3)s2)cc1C#N` [Compound 121], for which the EC50 lay in the range of 0.5 to 5 nM. Regarding `COC(=O)CS(=O)(=O)N[C@H]1CCc2c(-c3cnc(-c4ccc(OC(C)C)c(C#N)c4)s3)cccc21` [Compound 155, (S)-methyl 2-(N-(4-(2-(3-cyano-4-isopropoxyphenyl)thiazol-5-yl)-2,3-dihydro-1H-inden-1-yl)sulfamoyl)acetate], the EC50 lay within 0.5 to 5 nM. The value for `CC(C)Oc1ccc(-c2ncc(-c3cccc4c3CCC4N3CCCC3)s2)cc1C#N` (centres unmarked) [Compound 208] was 0.5 to 5 nM; that for `COCC(=O)N[C@H]1CCc2c(-c3cnc(-c4ccc(OC(C)C)c(C#N)c4)s3)cccc21` [Compound 76, (S)-N-(4-(2-(3-cyano-4-isopropoxyphenyl)thiazol-5-yl)-2,3-dihydro-1H-inden-1-yl)-2-methoxyacetamide] was 0.5 to 5 nM. For `CC(C)Oc1ccc(-c2ncc(-c3cccc4c3CCC4N3CC[C@@H](N)C3)s2)cc1C#N` (some centres unmarked) [Compound 212] the value was more than 5 nM; for `CC(C)Oc1ccc(-c2ncc(-c3cccc4c3CC[C@@H]4NC(=O)N3CCC[C@H](O)C3)s2)cc1C#N` [Compound 196], 0.5 to 5 nM; for `CC(C)Oc1ccc(-c2ncc(-c3cccc4c3CC[C@@H]4NS(=O)(=O)CCN3CCC(O)CC3)s2)cc1C#N` [Compound 145], more than 5 nM.

In the case of `COCCS(=O)(=O)N[C@H]1CCc2c(-c3cnc(-c4ccc(OC(C)C)c(C#N)c4)s3)cccc21` [Compound 115], the EC50 is 0.05 to 0.5 nM. Take `CC(C)Oc1ccc(-c2ncc(-c3cccc4c3CC[C@@H]4NC(=O)N(C)C)s2)cc1C#N` [Compound 168]: the EC50 was 0.05 to 0.5 nM. As for `CC(C)Oc1ccc(-c2ncc(-c3cccc4c3CCC4NCCO)s2)cc1C#N` (stereo in doubt) [Compound 91, (R)-5-(5-(1-((2-hydroxyethyl)amino)-2,3-dihydro-1H-inden-4-yl)thiazol-2-yl) -2-isopropoxybenzonitrile], the EC50 was 0.5 to 5 nM. Regarding `CC(C)Oc1ccc(-c2ncc(-c3cccc4c3CC[C@@H]4NC(=O)N3CC[C@H](N)C3)s2)cc1C#N` [Compound 179], the EC50 lay in the range of 0.5 to 5 nM. The value for `CC(C)Oc1ccc(-c2ncc(-c3cccc4c3CC[C@@H]4NC(=O)N3CC(O)C3)s2)cc1C#N` [Compound 170] was 0.5 to 5 nM. Turning to `CC(C)Oc1ccc(-c2ncc(-c3cccc4c3CC[C@@H]4NS(=O)(=O)CCC(=O)O)s2)cc1C#N` [Compound 160], the EC50 was less than 0.05 nM.

As for `CC(C)Oc1ccc(-c2ncc(-c3cccc4c3CC[C@@H]4NS(=O)(=O)CCN3CCCCC3)s2)cc1C#N` [Compound 139], the EC50 is more than 5 nM. As to `CC(C)Oc1ccc(-c2ncc(-c3cccc4c3CC[C@H]4NS(=O)(=O)CCN3CCC[C@@H](O)C3)s2)cc1C#N` (stereo in doubt) [Compound 143, N-((R)-4-(2-(3-cyano-4-isopropoxyphenyl)thiazol-5-yl)-2,3-dihydro-1H-inden-1-yl)-2-((R)-3-hydroxypiperidin-1-yl)ethanesulfonamide], the EC50 lay within 0.5 to 5 nM. Regarding `COCC(=O)N[C@@H]1CCc2c(-c3nnc(-c4ccc(OC(C)C)c(C#N)c4)s3)cccc21` [Compound 11], the EC50 was in the range of 0.05 to 0.5 nM. `COC(=O)CCS(=O)(=O)N[C@H]1CCc2c(-c3cnc(-c4ccc(OC(C)C)c(C#N)c4)s3)cccc21` [Compound 156]: the EC50 lay in the range of 0.05 to 0.5 nM. With `CC(C)Oc1ccc(-c2ncc(-c3cccc4c3CC[C@@H]4NCC(=O)N3CC[C@H](O)C3)s2)cc1C#N` [Compound 105], the EC50 is more than 5 nM.

On to `CC(C)Oc1ccc(-c2nnc(-c3cccc4c3CC[C@@H]4NC(=O)N3CC(C(=O)O)C3)s2)cc1C#N` [Compound 50], for which the EC50 lay in the range of 0.05 to 0.5 nM. As to `CC(C)Oc1ccc(-c2nnc(-c3cccc4c3CC[C@@H]4NC(=O)N3CC[C@H](O)C3)s2)cc1C#N` [Compound 55], the EC50 fell in the range of 0.5 to 5 nM.

`CC(C)Oc1ccc(-c2ncc(-c3cccc4c3CC[C@@H]4NS(=O)(=O)CCN3CCC[C@H](O)C3)s2)cc1C#N` [Compound 142]: the EC50 was in the range of 0.5 to 5 nM.

Turning to `CC(C)Oc1ccc(-c2ncc(-c3cccc4c3CC[C@@H]4NC(=O)N3CC[C@H](O)C3)s2)cc1C#N` [Compound 175], the EC50 was 0.5 to 5 nM.

As to `CC(C)Oc1ccc(-c2ncc(-c3cccc4c3CCC4NC3CCOCC3)s2)cc1C#N` (centres unmarked) [Compound 217], the EC50 was more than 5 nM. For the compound `CC(C)Oc1ccc(-c2ncc(-c3cccc4c3CCC4N[C@H](C)CO)s2)cc1C#N` (some centres unmarked) [Compound 95], the EC50 lay within 0.5 to 5 nM. In the case of `CC(C)Oc1ccc(-c2nnc(-c3cccc4c3CC[C@@H]4NCc3ncc[nH]3)s2)cc1C#N` [Compound 28, (S)-5-(5-(1-(((1H-imidazol-2-yl)methyl)amino)-2,3-dihydro-1H-inden-4-yl)-1,3,4-thiadiazol-2-yl)-2-isopropoxybenzonitrile], the EC50 lay in the range of 0.05 to 0.5 nM. With `COCC(=O)N[C@H]1CCc2c(-c3nnc(-c4ccc(OC(C)C)c(C#N)c4)s3)cccc21` [Compound 12], the EC50 is 0.5 to 5 nM. In the case of `CC(C)Oc1ccc(-c2ncc(-c3cccc4c3CC[C@@H]4NCC(=O)N3CC[C@H](O)C3)s2)cc1C#N` [Compound 103], the EC50 was 0.05 to 0.5 nM. Regarding `COC(=O)N[C@H]1CCc2c(-c3nnc(-c4ccc(OC(C)C)c(C#N)c4)s3)cccc21` [Compound 68], the EC50 lay in the range of 0.05 to 0.5 nM. For `CC(C)Oc1ccc(-c2ncc(-c3cccc4c3CCC4N3CCCCC3)s2)cc1C#N` (centres unmarked) [Compound 213], the EC50 lay in the range of 0.5 to 5 nM.
